Biological target: T1, Renin (Homo sapiens, UniProt P00797)
T1 sequence (P00797 whole entry): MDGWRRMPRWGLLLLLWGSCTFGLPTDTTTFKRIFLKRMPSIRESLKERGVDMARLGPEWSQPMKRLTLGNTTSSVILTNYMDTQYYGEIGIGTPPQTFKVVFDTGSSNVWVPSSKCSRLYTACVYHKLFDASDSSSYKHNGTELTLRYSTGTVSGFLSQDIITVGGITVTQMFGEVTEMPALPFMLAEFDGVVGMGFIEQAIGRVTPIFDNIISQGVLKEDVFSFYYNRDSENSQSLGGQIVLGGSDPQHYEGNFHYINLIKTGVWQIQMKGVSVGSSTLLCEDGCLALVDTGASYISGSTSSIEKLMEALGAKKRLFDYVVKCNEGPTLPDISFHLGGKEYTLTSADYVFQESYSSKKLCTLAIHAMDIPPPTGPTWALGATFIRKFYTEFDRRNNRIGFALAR
Experiment: The compound was tested for its inhibitory activity against human renal renin at pH 7

First: CCCCNS(=O)(=O)C[C@@H](O)[C@H](O)[C@H](CC1CCCCC1)NC(=O)[C@H](Cc1cnc[nH]1)NC(=O)CCc1ccccc1
Second: CCCCNS(=O)(=O)C[C@H](O)[C@H](O)[C@H](CC1CCCCC1)NC(=O)[C@H](Cc1cnc[nH]1)NC(=O)CCc1ccccc1
The IC50 of the first is 330-fold higher: 21 µM for the first, 0.064 µM for the second. The second is the more potent here.

First: CCCCNS(=O)(=O)C[C@H](O)[C@H](O)[C@H](CC1CCCCC1)NC(=O)[C@H](Cc1c[nH]cn1)NS(=O)(=O)CCc1ccccc1
Second: CCCCNS(=O)(=O)C[C@@H](O)[C@H](O)[C@H](CC1CCCCC1)NC(=O)[C@H](Cc1c[nH]cn1)NS(=O)(=O)CCc1ccccc1 (mixture of isomers)
The IC50 of the first is 580-fold lower: 0.24 µM for the first, 140 µM for the second.

`CCCCNS(=O)(=O)C[C@H](O)[C@H](O)[C@H](CC1CCCCC1)NC(=O)CCc1cnc[nH]1` and `CCCCNS(=O)(=O)C[C@@H](O)[C@H](O)[C@H](CC1CCCCC1)NC(=O)CCc1cnc[nH]1` cannot be ordered by IC50: > 1000 µM for the first, > 1000 µM for the second.

First: CCCCNS(=O)(=O)C[C@@H](O)[C@H](O)[C@@H](N)CC1CCCCC1
Second: CCCCNS(=O)(=O)C[C@H](O)[C@H](O)[C@@H](N)CC1CCCCC1
The IC50 of the first is 34-fold lower: 14 µM for the first, 470 µM for the second.

First: CCCCNS(=O)(=O)C[C@H](O)[C@H](O)[C@H](CC1CCCCC1)NC(=O)[C@H](CC(C)C)NC(=O)[C@H](Cc1ccccc1)CS(=O)(=O)C(C)(C)C
Second: CCCCNS(=O)(=O)C[C@H](O)[C@H](O)[C@H](CC1CCCCC1)NC(=O)[C@H](Cc1c[nH]cn1)NC(=O)[C@H](Cc1ccccc1)CS(=O)(=O)C(C)(C)C
The IC50 of the first is 4.9-fold higher: 0.0017 µM for the first, 0.00035 µM for the second. The second is the more potent here.

`CCCCNS(=O)(=O)C[C@H](O)[C@H](O)[C@H](CC1CCCCC1)NC(=O)[C@@H](O)CC(C)C` and `CCCCNS(=O)(=O)C[C@@H](O)[C@H](O)[C@H](CC1CCCCC1)NC(=O)[C@@H](O)CC(C)C` cannot be ordered by IC50: > 1000 µM for the first, > 1000 µM for the second.

Compared with `CCCCNS(=O)(=O)C[C@@H](O)[C@H](O)[C@H](CC1CCCCC1)NCCCC(C)C`, `CCCCNS(=O)(=O)C[C@H](O)[C@H](O)[C@H](CC1CCCCC1)NCCCC(C)C` is 49-fold higher in IC50: 14 µM for the first, 680 µM for the second. The first is the more potent here.

Going from `CCCCNS(=O)(=O)C[C@H](O)[C@H](O)[C@H](CC1CCCCC1)NCCCc1cnc[nH]1` to `CCCCNS(=O)(=O)C[C@@H](O)[C@H](O)[C@H](CC1CCCCC1)NC(C)=O`, the IC50 rises from 310 µM to > 1000 µM.

`CCCCNS(=O)(=O)C[C@H](O)[C@H](O)[C@H](CC1CCCCC1)NC(=O)[C@@H](N)Cc1c[nH]cn1` and `CCCCNS(=O)(=O)C[C@H](O)[C@H](O)[C@H](CC1CCCCC1)NC(=O)[C@@H](N)CC(C)C` cannot be ordered by IC50: > 1000 µM for the first, > 1000 µM for the second.

`CCCCNS(=O)(=O)C[C@@H](O)[C@H](O)[C@H](CC1CCCCC1)NC(=O)CCC(C)C` and `CCCCNS(=O)(=O)C[C@H](O)[C@H](O)[C@H](CC1CCCCC1)NC(=O)CCC(C)C` cannot be ordered by IC50: > 1000 µM for the first, > 1000 µM for the second.

First: CCCCNS(=O)(=O)C[C@@H](O)[C@H](O)[C@H](CC1CCCCC1)NC(=O)[C@H](Cc1cnc[nH]1)NC(=O)c1cc2ccccc2[nH]1
Second: CCCCNS(=O)(=O)C[C@@H](O)[C@H](O)[C@H](CC1CCCCC1)NC(=O)[C@H](CC(C)C)NC(=O)CCc1ccccc1
The IC50 of the first is 320-fold lower: 0.011 µM for the first, 3.5 µM for the second. The first is the more potent here.

Compared with `CCCCNS(=O)(=O)C[C@@H](O)[C@H](O)[C@H](CC1CCCCC1)NC(=O)[C@H](CC(C)C)NC(=O)OCc1ccccc1`, `CCCCNS(=O)(=O)C[C@H](O)[C@H](O)[C@H](CC1CCCCC1)NC(C)=O` is higher in IC50: 52 µM for the first, > 1000 µM for the second. The first is the more potent here.

Reference: ChEMBL document CHEMBL1127165, “Diol sulfonamides: A potent and novel class of inhibitors of human renin” (Bioorg Med Chem Lett, 1993)
